Measurements as given in patent US10034477B2, “Pyrido-1,3-oxazine-2,4-dione compounds with fungicidal activity” (Dow AgroSciences LLC, priority 2016, dated 2018).
Read-outs that look alike come from different tables or passages of the source. Blank lines part the entries; values can stand above or below the compound they belong to.

How the values were obtained:
Puccinia triticina = assay: Fungicidal activity: wheat brown rust (PUCCRT), disease control on wheat seedlings; format: in vivo; settings: LV activity at 121.5 g/H, wheat (variety Yuma)
Description: (§1) Technical grades of materials were dissolved in acetone, which were then mixed with nine volumes of water (H2O) containing 110 ppm Triton X-100. The fungicide solutions were applied onto wheat seedlings using an automated booth sprayer to run-off. All sprayed plants were allowed to air dry prior to further handling. All fungicides were evaluated using the aforementioned method for their activity vs. all target diseases, unless stated otherwise. Wheat leaf blotch and brown rust activity were also evaluated using track spray applications, in which case the fungicides were formulated as EC formulations, containing 0.1% Trycol 5941 in the spray solutions. Wheat plants (variety Yuma) were grown from seed in a greenhouse in 50% mineral soil/50% soil-less Metro mix until the first leaf was fully emerged, with 7-10 seedlings per pot. These plants were inoculated with an aqueous spore suspension of Zymoseptoria tritici either prior to or after fungicide treatments. After inoculation the plants were kept in 100% relative humidity (one day in a dark dew chamber followed by two to three days in a lighted dew chamber at 20° C.) to permit spores to germinate and infect the leaf. The plants were then transferred to a greenhouse set at 20° C. for disease to develop. When disease symptoms were fully expressed on the 1st leaves of untreated plants, infection levels were assessed on a scale of 0 to 100 percent disease severity. Percent disease control was calculated using the ratio of disease severity on treated plants relative to untreated plants. Wheat plants (variety Yuma) were grown from seed in a greenhouse in 50% mineral soil/50% soil-less Metro mix until the first leaf was fully emerged, with 7-10 seedlings per pot. These plants were inoculated with an aqueous spore suspension of Puccinia triticina either prior to or after fungicide treatments. After inoculation the plants were kept in a dark dew room at 22° C. with 100% relative humidity overnight to permit spores to germinate and infect the leaf. The plants were then transferred to a greenhouse set at 24° C. for disease to develop. Fungicide formulation, application and disease assessment followed the procedures as described in the Example A. Results of the evaluations are shown below in Table 4.

Phakopsora pachyrhizi = assay: Fungicidal activity: Asian soybean rust (PHAKPA), disease control on soybean seedlings; format: in vivo; settings: soybean (variety Williams 82)
Description: Technical grades of materials were dissolved in acetone, which were then mixed with nine volumes of H2O containing 0.011% Tween 20. The fungicide solutions were applied onto soybean seedlings using an automated booth sprayer to run-off. All sprayed plants were allowed to air dry prior to further handling. Soybean plants (variety Williams 82) were grown in soil-less Metro mix, with one plant per pot. Two week old seedlings were used for testing. Plants were inoculated either 3 days prior to or 1 day after fungicide treatments. Plants were incubated for 24 h in a dark dew room at 22° C. and 100% relative humidity then transferred to a growth room at 23° C. for disease to develop. Disease severity was assessed on the sprayed leaves.

Zymoseptoria tritici = assay: Fungicidal activity: leaf blotch of wheat (SEPTTR), disease control on wheat seedlings; format: in vivo; settings: LV activity at 121.5 g/H, wheat (variety Yuma)
Description: as §1, with “plants.” for “plants. Wheat plants (variety Yuma) were grown from seed in a greenhouse in 50% mineral soil/50% soil-less Metro mix until the first leaf was fully emerged, with 7-10 seedlings per pot. These plants were inoculated with an aqueous spore suspension of Puccinia triticina either prior to or after fungicide treatments. After inoculation the plants were kept in a dark dew room at 22° C. with 100% relative humidity overnight to permit spores to germinate and infect the leaf. The plants were then transferred to a greenhouse set at 24° C. for disease to develop. Fungicide formulation, application and disease assessment followed the procedures as described in the Example A. Results of the evaluations are shown below in Table 4.”

[1] = 24 h, 1 Day Protectant, read-out: PUCCRT 1DP disease control rating
[2] = 72 h, 3 Day Curative, read-out: PUCCRT 3DC disease control rating
[3] = 24 h, 1 Day Protectant, read-out: PHAKPA 1DP disease control rating
[4] = 24 h, 1 Day Protectant, read-out: SEPTTR 1DP disease control rating
[5] = 72 h, 3 Day Curative, read-out: SEPTTR 3DC disease control rating
[6] = 72 h, 3 Day Curative, read-out: PHAKPA 3DC disease control rating

melting point: 68 to 84 °C
Compound: COc1ccnc2c(=O)n([C@@H](C)C(=O)O[C@@H](C)C(c3ccc(F)cc3)c3ccc(F)cc3)c(=O)oc12 [Compound 1]
pest or weed control at 121.5 g/ha (Puccinia triticina; [1]): > 80%
pest or weed control at 121.5 g/ha (Puccinia triticina; [2]): ≤ 80%
pest or weed control at 25 ppm (Phakopsora pachyrhizi; [3]): ≤ 80%
pest or weed control at 121.5 g/ha (Zymoseptoria tritici; [4]): > 80%
pest or weed control at 121.5 g/ha (Zymoseptoria tritici; [5]): > 80%

Compound: COc1ccnc2c(=O)n([C@@H](C)C(=O)O[C@H](C(C)C)[C@H](C)Oc3ccc(C)cc3)c(=O)oc12 [Compound 30]
pest or weed control at 121.5 g/ha (Puccinia triticina; [1]): > 80%
pest or weed control at 121.5 g/ha (Puccinia triticina; [2]): ≤ 80%
pest or weed control at 25 ppm (Phakopsora pachyrhizi; [3]): ≤ 80%
pest or weed control at 121.5 g/ha (Zymoseptoria tritici; [4]): ≤ 80%
pest or weed control at 121.5 g/ha (Zymoseptoria tritici; [5]): ≤ 80%

Compound: COc1ccnc2c(=O)n([C@@H](C)C(=O)O[C@@H](C)[C@@H](c3ccccc3)c3ccc(F)c(C)c3)c(=O)oc12 [Compound 22]
pest or weed control at 121.5 g/ha (Puccinia triticina; [1]): > 80%
pest or weed control at 121.5 g/ha (Puccinia triticina; [2]): ≤ 80%
pest or weed control at 25 ppm (Phakopsora pachyrhizi; [3]): ≤ 80%
pest or weed control at 25 ppm (Phakopsora pachyrhizi; [6]): ≤ 80%
pest or weed control at 121.5 g/ha (Zymoseptoria tritici; [4]): > 80%
pest or weed control at 121.5 g/ha (Zymoseptoria tritici; [5]): > 80%

Compound: COc1ccnc2c(=O)n([C@@H](C)C(=O)O[C@@H](C)[C@H](c3ccc(C)cc3)c3ccc(C)cc3F)c(=O)oc12 [Compound 25]
pest or weed control at 121.5 g/ha (Puccinia triticina; [1]): > 80%
pest or weed control at 121.5 g/ha (Puccinia triticina; [2]): ≤ 80%
pest or weed control at 25 ppm (Phakopsora pachyrhizi; [3]): ≤ 80%
pest or weed control at 121.5 g/ha (Zymoseptoria tritici; [4]): > 80%
pest or weed control at 121.5 g/ha (Zymoseptoria tritici; [5]): > 80%

Compound: COc1ccnc2c(=O)n([C@@H](C)C(=O)O[C@@H](C)[C@@H](c3ccc(F)cc3)c3ccc(F)cc3C)c(=O)oc12 [Compound 19]
pest or weed control at 121.5 g/ha (Puccinia triticina; [1]): > 80%
pest or weed control at 121.5 g/ha (Puccinia triticina; [2]): ≤ 80%
pest or weed control at 25 ppm (Phakopsora pachyrhizi; [3]): > 80%
pest or weed control at 25 ppm (Phakopsora pachyrhizi; [6]): ≤ 80%
pest or weed control at 121.5 g/ha (Zymoseptoria tritici; [4]): > 80%
pest or weed control at 121.5 g/ha (Zymoseptoria tritici; [5]): > 80%

Compound: COc1ccc(O[C@@H](C)[C@H](OC(=O)[C@H](C)n2c(=O)oc3c(OC)ccnc3c2=O)C(C)C)cc1 [Compound 23]
pest or weed control at 121.5 g/ha (Puccinia triticina; [1]): > 80%
pest or weed control at 121.5 g/ha (Puccinia triticina; [2]): > 80%
pest or weed control at 25 ppm (Phakopsora pachyrhizi; [3]): > 80%
pest or weed control at 25 ppm (Phakopsora pachyrhizi; [6]): ≤ 80%
pest or weed control at 121.5 g/ha (Zymoseptoria tritici; [4]): ≤ 80%
pest or weed control at 121.5 g/ha (Zymoseptoria tritici; [5]): > 80%

Compound: COc1ccnc2c(=O)n([C@@H](C)C(=O)O[C@@H](C)C(c3ccc(Cl)cc3)c3ccc(Cl)cc3)c(=O)oc12 [Compound 27]
pest or weed control at 121.5 g/ha (Puccinia triticina; [1]): ≤ 80%
pest or weed control at 25 ppm (Phakopsora pachyrhizi; [3]): ≤ 80%
pest or weed control at 25 ppm (Phakopsora pachyrhizi; [6]): ≤ 80%
pest or weed control at 121.5 g/ha (Zymoseptoria tritici; [4]): > 80%
pest or weed control at 121.5 g/ha (Zymoseptoria tritici; [5]): > 80%

Compound: COc1ccc(C(c2ccc(OC)cc2)[C@H](C)OC(=O)[C@H](C)n2c(=O)oc3c(OC)ccnc3c2=O)cc1 [Compound 18]
pest or weed control at 121.5 g/ha (Puccinia triticina; [1]): > 80%
pest or weed control at 121.5 g/ha (Puccinia triticina; [2]): ≤ 80%
pest or weed control at 25 ppm (Phakopsora pachyrhizi; [3]): ≤ 80%
pest or weed control at 25 ppm (Phakopsora pachyrhizi; [6]): ≤ 80%
pest or weed control at 121.5 g/ha (Zymoseptoria tritici; [4]): > 80%
pest or weed control at 121.5 g/ha (Zymoseptoria tritici; [5]): > 80%
